In patent publication US20260317319A1, “NOVEL ERGOLINES AND METHODS OF TREATING MOOD DISORDERS” (Gilgamesh Pharma Inc., priority 2023, published 2026):

Tests used:
5-HT2C receptor [1] = molecular target: T1, 5-HT2C receptor (Homo sapiens, UniProt P28335); assay: Ca2+ flux functional assay at 5-HT2C (WuXi 5-HT2C protocol); format: cell-based; parameters: expressed in transfected cells; settings: for Emax: agonist, tested using WuXi 5-HT2C protocol, max dose, read-out: 5-HT2C % Act @ Max Dose (* WuXi protocol)
T1 sequence (P28335 33-458): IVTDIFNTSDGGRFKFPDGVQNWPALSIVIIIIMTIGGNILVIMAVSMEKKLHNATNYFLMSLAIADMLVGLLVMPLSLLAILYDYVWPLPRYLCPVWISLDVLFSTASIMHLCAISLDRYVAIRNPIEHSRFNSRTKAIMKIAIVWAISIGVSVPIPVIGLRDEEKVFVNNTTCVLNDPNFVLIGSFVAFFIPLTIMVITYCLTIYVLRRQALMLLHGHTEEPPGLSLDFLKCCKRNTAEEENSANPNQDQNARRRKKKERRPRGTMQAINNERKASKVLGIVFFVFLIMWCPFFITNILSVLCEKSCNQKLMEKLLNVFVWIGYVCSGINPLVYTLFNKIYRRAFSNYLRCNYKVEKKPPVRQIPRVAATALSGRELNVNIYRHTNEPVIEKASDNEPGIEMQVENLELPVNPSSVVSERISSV
Experimental: Disclosed compounds were tested for agonist activity at several serotonin receptor subtypes (5-HT2A, […], 5-HT2C, and 5-HT1A) using Ca^2+ flux functional assays and the 5-HT1B receptor using a cAMP accumulation assay, with the results summarized in Table 4. […] Potent agonist activity was also observed at the other serotonin receptors tested, although the selectivity profile among the receptors varied across compounds. […] However, at the same time, the N-propyl compounds were more efficacious agonists at 5-HT2B than the corresponding N-methyl compounds. The selectivity of disclosed compounds for 5-HT2A over 5-HT2C and 5-HT1A was less predictable and varied widely across compounds. […] An azetidinyl amide substituent tended to increase potency at 5-HT1A relative to 5-HT2A.
(§1) Functional Assays at 5-HT2A, 5-HT2B, and 5-HT1A. Agonist activity at 5-HT2A, 5-HT2B, 5HT2C and 5-HT1A receptors was determined using a FLIPR Ca^2+ flux assay at WuXi AppTec (Hong Kong) Limited according to their standard protocols. Briefly, stably transfected cells expressing the receptor of interest and Gα15 in the case of 5-HT1A (HEK293 for 5-HT2A and 5-HT2B; CHO cells for 5-HT1A) were grown and plated in a 384 well plate and incubated at 37° C. and 5% CO2 overnight. A solution of 250 mM probenecid in 1 mL FLIPR assay buffer was prepared fresh. This was combined with a fluorescent dye (Fluo-4 Direct™) to make a final assay concentration of 2.5 mM. Compounds were diluted 1:3.16 for 10 points and 750 nL was added to a 384 well compound plate using ECHO along with 30 μL assay buffer. The fluorescent dye was then added to the assay plate along with assay buffer to a final volume of 40 μL. The cell plate was incubated for 50 min at 37° C. and 5% CO2 and placed into the FLIPR Tetra along with the compound plate. 10 μL of references and compounds were then transferred from the compound plate into the cell plate and the fluorescent signal was read.

5-HT2C receptor [2] = molecular target: T1, 5-HT2C receptor; assay: cell-based; settings: for Emax: read-out: 5-HT2C % Act @ Max Dose; for EC50: read-out: 5-HT2C EC50
[3] = molecular target: T2, Alpha1A adrenergic receptor (Homo sapiens, UniProt P35348); assay: Ca2+ flux functional assay at Alpha1A; format: cell-based; settings: for maximal efficacy at Alpha1A: "higher" is compared to the N-methyl compound LSD; for Emax: agonist, Ca2+ flux, max dose, read-out: Alpha 1A % Act @ Max Dose
T2 construct: expressed in transfected cells
T2 sequence (P35348 1-466): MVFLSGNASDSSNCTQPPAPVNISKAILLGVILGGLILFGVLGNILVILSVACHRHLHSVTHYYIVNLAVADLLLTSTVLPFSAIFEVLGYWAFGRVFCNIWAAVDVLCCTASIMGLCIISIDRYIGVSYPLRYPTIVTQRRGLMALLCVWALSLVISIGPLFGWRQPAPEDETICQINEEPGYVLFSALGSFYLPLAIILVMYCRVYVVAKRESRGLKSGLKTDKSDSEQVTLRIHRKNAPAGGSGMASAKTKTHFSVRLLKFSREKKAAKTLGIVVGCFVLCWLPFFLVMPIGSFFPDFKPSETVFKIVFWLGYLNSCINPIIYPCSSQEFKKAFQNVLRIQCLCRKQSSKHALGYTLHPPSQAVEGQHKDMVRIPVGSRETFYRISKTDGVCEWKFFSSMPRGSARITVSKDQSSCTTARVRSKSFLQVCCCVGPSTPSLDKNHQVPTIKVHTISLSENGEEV
Experimental: (§2) Disclosed compounds were tested for agonist activity at several adrenergic (Alpha1A and Alpha2A) and dopamine (D1 and D2) receptor subtypes using Ca^2+ flux functional assays, with the results summarized in Table 6. Selectivity for the 5-HT2A receptor over these other targets varied depending on the specific target and compound.
as §1, with “Adrenergic” for “5-HT2A, 5-HT2B,”, “Dopamine Receptors.” for “5-HT1A.”, “Alpha1A, Alpha2A, D1,” for “5-HT2A, 5-HT2B, 5HT2C”, “D2” for “5-HT1A”, “interest” for “interest and Gα15 in the case of 5-HT1A (HEK293 for 5-HT2A and 5-HT2B; CHO cells for 5-HT1A)”

D2 dopamine receptor = molecular target: T3, D2 dopamine receptor (Homo sapiens, UniProt P14416); assay: Ca2+ flux functional assay at D2; format: cell-based; settings: for Emax: agonist, Ca2+ flux, max dose, read-out: D2 % Act @ Max Dose; for maximal efficacy at D2: compared to the N-methyl compound LSD
T3 construct: expressed in transfected cells
Experimental: as §2
as §1, with “Adrenergic” for “5-HT2A, 5-HT2B,”, “Dopamine Receptors.” for “5-HT1A.”, “Alpha1A, Alpha2A, D1,” for “5-HT2A, 5-HT2B, 5HT2C”, “D2” for “5-HT1A”, “interest” for “interest and Gα15 in the case of 5-HT1A (HEK293 for 5-HT2A and 5-HT2B; CHO cells for 5-HT1A)”

[4] = agonist, Ca2+ flux, Eurofins DiscoverX protocol, max dose
[5] = agonist, Ca2+ flux, Eurofins DiscoverX protocol

T3 sequence (P14416 whole entry): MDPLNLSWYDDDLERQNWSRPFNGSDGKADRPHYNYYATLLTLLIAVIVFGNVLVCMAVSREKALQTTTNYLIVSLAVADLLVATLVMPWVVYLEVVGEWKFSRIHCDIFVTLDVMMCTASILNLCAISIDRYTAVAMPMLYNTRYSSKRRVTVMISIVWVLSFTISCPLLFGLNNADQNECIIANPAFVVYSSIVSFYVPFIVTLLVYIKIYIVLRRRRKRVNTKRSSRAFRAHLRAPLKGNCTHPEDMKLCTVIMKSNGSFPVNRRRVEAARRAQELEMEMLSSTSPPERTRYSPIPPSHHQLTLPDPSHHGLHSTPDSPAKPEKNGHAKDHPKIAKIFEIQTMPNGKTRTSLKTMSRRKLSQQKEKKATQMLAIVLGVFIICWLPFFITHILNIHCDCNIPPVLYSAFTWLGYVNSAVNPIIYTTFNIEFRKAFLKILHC

Compound | EC50 (5-HT2C receptor [1]) | Emax (5-HT2C receptor [1]) | Emax (5-HT2C receptor [2]; [4]) | other results
CCN(CC)C(=O)[C@@H]1C=C2c3cccc4[nH]cc(c34)C[C@H]2N(Cc2ccccc2)C1 [Compound 82, (6aR,9R)-7-benzyl-N,N-diethyl-4,6,6a,7,8,9-hexahydroindolo[4,3-fg]quinoline-9-carboxamide] | > 10 µM | 15.6% |  | 
CCN(CC)C(=O)[C@@H]1C=C2c3cccc4[nH]cc(c34)C[C@H]2N(Cc2cccc(OC)c2)C1 [Compound 18, (6aR,9R)—N,N-diethyl-7-(3-methoxybenzyl)-4,6,6a,7,8,9-hexahydroindolo[4,3-fg]quinoline-9-carboxamide] |  |  | 7.28% | EC50 (5-HT2C receptor [2]; [5]): > 10 µM
CCCN1C[C@H](C(=O)N[C@H](C)CC)C=C2c3cccc4[nH]cc(c34)C[C@H]21 [Compound 3, (6aR,9R)—N—((R)-sec-butyl)-7-propyl-4,6,6a,7,8,9-hexahydroindolo[4,3-fg]quinoline-9-carboxamide] |  |  | 119% | maximal efficacy at Alpha1A [3]: substantially higher maximal efficacy; Emax [3]: 125%; Emax (D2 dopamine receptor): 117%; maximal efficacy at D2 (D2 dopamine receptor): substantially higher maximal efficacy
CCN(CC)C(=O)[C@@H]1C=C2c3cccc4[nH]cc(c34)C[C@H]2N(Cc2ccc(OC)cc2)C1 [Compound 19, (6aR,9R)—N,N-diethyl-7-(4-methoxybenzyl)-4,6,6a,7,8,9-hexahydroindolo[4,3-fg]quinoline-9-carboxamide] |  |  | 1.7% | EC50 (5-HT2C receptor [2]; [5]): > 10 µM
CCN(CC)C(=O)[C@@H]1C=C2c3cccc4[nH]cc(c34)C[C@H]2N(Cc2ccon2)C1 [Compound 70, (6aR,9R)—N,N-diethyl-7-(isoxazol-3-ylmethyl)-4,6,6a,7,8,9-hexahydroindolo[4,3-fg]quinoline-9-carboxamide] | > 10 µM | 23.9% |  | 
CCCN1C[C@H](C(=O)N(CC)CC)C=C2c3cccc4[nH]cc(c34)C[C@H]21 [Compound 1, (6aR,9R)—N,N-diethyl-7-propyl-4,6,6a,7,8,9-hexahydroindolo[4,3-fg]quinoline-9-carboxamide] |  |  | 107% | maximal efficacy at Alpha1A [3]: substantially higher maximal efficacy; Emax [3]: 80.6%; Emax (D2 dopamine receptor): 94.5%; maximal efficacy at D2 (D2 dopamine receptor): substantially higher maximal efficacy
CCCN1C[C@H](C(=O)NC(CC)CC)C=C2c3cccc4[nH]cc(c34)C[C@H]21 [Compound 6, (6aR,9R)—N-(pentan-3-yl)-7-propyl-4,6,6a,7,8,9-hexahydroindolo[4,3-fg]quinoline-9-carboxamide] |  |  | 117% | maximal efficacy at Alpha1A [3]: substantially higher maximal efficacy; Emax (D2 dopamine receptor): 91.7%; maximal efficacy at D2 (D2 dopamine receptor): substantially higher maximal efficacy
CCN(CC)C(=O)[C@@H]1C=C2c3cccc4[nH]cc(c34)C[C@H]2N(Cc2cccc(C#N)c2)C1 [Compound 76, (6aR,9R)—N,N-diethyl-7-(3-cyanobenzyl)-4,6,6a,7,8,9-hexahydroindolo[4,3-fg]quinoline-9-carboxamide] | > 10 µM | 0.14% |  | 
CCCN1C[C@H](C(=O)N2[C@@H](C)C[C@@H]2C)C=C2c3cccc4[nH]cc(c34)C[C@H]21 [Compound 4, ((2S,4S)-2,4-dimethylazetidin-1-yl)((6aR,9R)-7-propyl-4,6,6a,7,8,9-hexahydroindolo[4,3-fg]quinolin-9-yl)methanone] |  |  | 111% | maximal efficacy at Alpha1A [3]: substantially higher maximal efficacy; Emax [3]: 119%; Emax (D2 dopamine receptor): 117%; maximal efficacy at D2 (D2 dopamine receptor): substantially higher maximal efficacy
CCN(C)C(=O)[C@@H]1C=C2c3cccc4[nH]cc(c34)C[C@H]2N(Cc2ccccc2)C1 [Compound 85, (6aR,9R)-7-benzyl-N-ethyl-N-methyl-4,6,6a,7,8,9-hexahydroindolo[4,3-fg]quinoline-9-carboxamide] | > 10 µM | 16.3% |  | 
CCN(CC)C(=O)[C@@H]1C=C2c3cccc4[nH]cc(c34)C[C@H]2N(Cc2ccc(Cl)cc2)C1 [Compound 50, (6aR,9R)-7-(4-chlorobenzyl)-N,N-diethyl-4,6,6a,7,8,9-hexahydroindolo[4,3-fg]quinoline-9-carboxamide] | > 10 µM | 1.08% |  | 
CC[C@@H](C)NC(=O)[C@@H]1C=C2c3cccc4[nH]cc(c34)C[C@H]2N(C)C1 [Int8] |  |  |  | Emax (5-HT2C receptor [2]): 98.2%
CCN(CC)C(=O)[C@@H]1C=C2c3cccc4[nH]cc(c34)C[C@H]2N(Cc2cccc(O)c2)C1 [Compound 62, (6aR,9R)—N,N-diethyl-7-(3-hydroxybenzyl)-4,6,6a,7,8,9-hexahydroindolo[4,3-fg]quinoline-9-carboxamide] | > 10 µM | 20.3% |  | 
CCN(CC)C(=O)[C@@H]1C=C2c3cccc4[nH]cc(c34)C[C@H]2N(Cc2cocn2)C1 [Compound 73, (6aR,9R)—N,N-diethyl-7-(oxazol-4-ylmethyl)-4,6,6a,7,8,9-hexahydroindolo[4,3-fg]quinoline-9-carboxamide] | 1.72 µM | 74% |  | 
CCN(CC)C(=O)[C@@H]1C=C2c3cccc4[nH]cc(c34)C[C@H]2N(CCc2ccccc2OC)C1 [Compound 11, (6aR,9R)—N,N-diethyl-7-(2-methoxyphenethyl)-4,6,6,7,8,9-hexahydroindolo[4,3-fg]quinoline-9-carboxamide] |  |  |  | maximal efficacy at Alpha1A [3]: very low efficacy agonists
CCN(CC)C(=O)[C@@H]1C=C2c3cccc4[nH]cc(c34)C[C@H]2N(C)C1 [LSD, lysergic acid diethylamide, reference compound] |  |  |  | Emax [3]: 60.3%; Emax (D2 dopamine receptor): 78.3%
CCN(CC)C(=O)[C@@H]1C=C2c3cccc4[nH]cc(c34)C[C@H]2N(Cc2ccc(F)cc2)C1 [Compound 49, (6aR,9R)—N,N-diethyl-7-(4-fluorobenzyl)-4,6,6a,7,8,9-hexahydroindolo[4,3-fg]quinoline-9-carboxamide] | > 10 µM | 1.32% |  | 
C=CCN1C[C@H](C(=O)N[C@H](C)CC)C=C2c3cccc4[nH]cc(c34)C[C@H]21 [Compound 8, (6aR,9R)-7-allyl-N—((R)-sec-butyl)-4,6,6a,7,8,9-hexahydroindolo[4,3-fg]quinoline-9-carboxamide] |  |  | 108% | 
